Test results reported in PMC11374953, “Heteroaryl derivatives of suvorexant as OX1R selective PET ligand candidates: Cu-mediated ^18F-fluorination of boroxines, in vitro and initial in vivo evaluation” (EJNMMI Research, 2024).
Where “and” joins values, the source holds several entries; their conditions need not be identical. Equal entries are not always repeated. Entries after “also recorded” stand apart in the source; their conditions may differ.

How the values were obtained:
human OX1R = biological target: T1, human OX1R (Homo sapiens, UniProt O43613); experiment: Radioligand displacement binding, human OX1R (HEK293T membranes); details: for OX1R selectivity Ki(hOX2R)/Ki(hOX1R): Ki for OX2R divided by Ki for OX1R; for Ki: mean ± SEM, at least three experiments in triplicate, HEK293T membranes, radioligand [^3H]SB974042, read-out: Ki values (nM ± SEM) hOX1R
T1 construct: host or cells: HEK293T
T1 sequence (O43613 1-425): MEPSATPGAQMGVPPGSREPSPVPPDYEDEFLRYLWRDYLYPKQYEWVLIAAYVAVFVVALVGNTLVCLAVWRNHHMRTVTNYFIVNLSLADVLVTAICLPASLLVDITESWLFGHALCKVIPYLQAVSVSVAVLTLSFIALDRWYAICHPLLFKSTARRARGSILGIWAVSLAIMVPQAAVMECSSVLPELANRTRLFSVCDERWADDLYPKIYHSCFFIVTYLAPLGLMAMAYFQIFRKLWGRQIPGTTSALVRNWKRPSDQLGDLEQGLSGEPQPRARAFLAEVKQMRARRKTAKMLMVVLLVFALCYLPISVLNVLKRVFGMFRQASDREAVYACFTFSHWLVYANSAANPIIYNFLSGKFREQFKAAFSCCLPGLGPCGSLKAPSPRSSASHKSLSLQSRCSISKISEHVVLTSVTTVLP
Description: (§1) In comparison with the lead JH112, receptor binding affinities of the test compounds 1a–f have been determined by radioligand displacement studies, as described previously, applying membranes of HEK293T cells transiently expressing the human OX1R or OX2R (Table 1).
Binding affinities to the human orexin receptor subtypes OX1R and OX2R were determined as reported. Membranes were prepared from HEK293T cells transiently transfected with the cDNA for the receptor (OX1R: human HCRTR1 from cDNA Resource Center, Bloomsburg University, Bloomsberg, PA; OX2R: human HCRTR2 from Genscript, Piscataway, NJ). […] Competition binding experiments were conducted in binding buffer (50 mM Tris, 5 mM MgCl2, 0.1 mM EDTA, 5 µg/mL bacitracin and 5 µg/mL soybean trypsin inhibitor at pH 7.4) at final protein concentrations of 4 µg/well (OX1R) and 3 µg/well ([…]) or the OX2R radioligand [^3H]EMPA (specific activity: 84 Ci/mmol) both at a final concentration of 0.7 nM (both purchased from Novandi, Södertälje, Sweden) and varying concentrations of the competing test compounds. Radioactivity was separated by filtration on GF/B glass fiber mats and counted with a scintillation counter (Microbeta from PerkinElmer, Rodgau, Germany). […] The protein concentration was determined applying the method of Lowry. Competition curves were analyzed by nonlinear regression using the algorithms implemented in PRISM 10.2 (GraphPad Software, San Diego, CA) to get IC50 values, which were subsequently transformed into the Ki values employing the equation of Cheng and Prusoff.

human OX2R = biological target: T2, human OX2R (Homo sapiens, UniProt O43614); experiment: Radioligand displacement binding, human OX2R (HEK293T membranes); details: mean ± SEM, at least three experiments in triplicate; HEK293T homogenates, radioligand [^3H]EMPA; read-out: Ki values (nM ± SEM) hOX2R
T2 construct: host or cells: HEK293T
T2 sequence (O43614 1-444): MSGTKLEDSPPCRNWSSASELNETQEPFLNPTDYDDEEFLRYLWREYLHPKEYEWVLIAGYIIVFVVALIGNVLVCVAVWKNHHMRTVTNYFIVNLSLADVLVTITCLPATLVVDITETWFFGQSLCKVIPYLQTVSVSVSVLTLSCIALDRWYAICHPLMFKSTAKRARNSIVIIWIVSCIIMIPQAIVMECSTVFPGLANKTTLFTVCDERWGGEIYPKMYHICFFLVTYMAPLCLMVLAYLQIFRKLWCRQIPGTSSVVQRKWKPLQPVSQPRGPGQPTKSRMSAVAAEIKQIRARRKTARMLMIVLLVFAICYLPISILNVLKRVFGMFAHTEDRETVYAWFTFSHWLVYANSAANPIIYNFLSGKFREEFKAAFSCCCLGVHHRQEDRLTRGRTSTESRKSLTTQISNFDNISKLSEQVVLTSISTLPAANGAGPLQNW
Description: as §1
Binding affinities to the human orexin receptor subtypes OX1R and OX2R were determined as reported. Membranes were prepared from HEK293T cells transiently transfected with the cDNA for the receptor (OX1R: human HCRTR1 from cDNA Resource Center, Bloomsburg University, Bloomsberg, PA; OX2R: human HCRTR2 from Genscript, Piscataway, NJ). […] Competition binding experiments were conducted in binding buffer (50 mM Tris, 5 mM MgCl2, 0.1 mM EDTA, 5 µg/mL bacitracin and 5 µg/mL soybean trypsin inhibitor at pH 7.4) at final protein concentrations of 4 µg/well (OX1R) and 3 µg/well (OX2R) when incubating the OX1R specific radioligand [^3H]SB674042 (specific activity: 43 Ci/mmol) or the OX2R radioligand [^3H]EMPA (specific activity: 84 Ci/mmol) both at a final concentration of 0.7 nM (both purchased from Novandi, Södertälje, Sweden) and varying concentrations of the competing test compounds. Radioactivity was separated by filtration on GF/B glass fiber mats and counted with a scintillation counter (Microbeta from PerkinElmer, Rodgau, Germany). Non-specific binding was determined with 10 µM of SB674042 or EMPA. The protein concentration was determined applying the method of Lowry. Competition curves were analyzed by nonlinear regression using the algorithms implemented in PRISM 10.2 (GraphPad Software, San Diego, CA) to get IC50 values, which were subsequently transformed into the Ki values employing the equation of Cheng and Prusoff.

P-gp = P-gp (Homo sapiens, UniProt P08183); experiment: Basolateral-to-apical transport in Caco-2 monolayers with and without the P-gp inhibitor zosuquidar; details: for effect of P-gp inhibitor zosuquidar (ZSQ) on basolateral-to-apical transport / passive permeability (transcellular passive diffusion): Caco-2 monolayers, 4 h; for effect of P-gp inhibitor zosuquidar (ZSQ) on basolateral-to-apical transport: 5 µM compound, 1 µM ZSQ, n = 8; for passive permeability (transcellular passive diffusion): 5 µM, compared with digoxin; for P-gp substrate assessment: Caco-2 monolayer model with zosuquidar
Chain of P-gp (P08183 whole entry, the tested form may be a part): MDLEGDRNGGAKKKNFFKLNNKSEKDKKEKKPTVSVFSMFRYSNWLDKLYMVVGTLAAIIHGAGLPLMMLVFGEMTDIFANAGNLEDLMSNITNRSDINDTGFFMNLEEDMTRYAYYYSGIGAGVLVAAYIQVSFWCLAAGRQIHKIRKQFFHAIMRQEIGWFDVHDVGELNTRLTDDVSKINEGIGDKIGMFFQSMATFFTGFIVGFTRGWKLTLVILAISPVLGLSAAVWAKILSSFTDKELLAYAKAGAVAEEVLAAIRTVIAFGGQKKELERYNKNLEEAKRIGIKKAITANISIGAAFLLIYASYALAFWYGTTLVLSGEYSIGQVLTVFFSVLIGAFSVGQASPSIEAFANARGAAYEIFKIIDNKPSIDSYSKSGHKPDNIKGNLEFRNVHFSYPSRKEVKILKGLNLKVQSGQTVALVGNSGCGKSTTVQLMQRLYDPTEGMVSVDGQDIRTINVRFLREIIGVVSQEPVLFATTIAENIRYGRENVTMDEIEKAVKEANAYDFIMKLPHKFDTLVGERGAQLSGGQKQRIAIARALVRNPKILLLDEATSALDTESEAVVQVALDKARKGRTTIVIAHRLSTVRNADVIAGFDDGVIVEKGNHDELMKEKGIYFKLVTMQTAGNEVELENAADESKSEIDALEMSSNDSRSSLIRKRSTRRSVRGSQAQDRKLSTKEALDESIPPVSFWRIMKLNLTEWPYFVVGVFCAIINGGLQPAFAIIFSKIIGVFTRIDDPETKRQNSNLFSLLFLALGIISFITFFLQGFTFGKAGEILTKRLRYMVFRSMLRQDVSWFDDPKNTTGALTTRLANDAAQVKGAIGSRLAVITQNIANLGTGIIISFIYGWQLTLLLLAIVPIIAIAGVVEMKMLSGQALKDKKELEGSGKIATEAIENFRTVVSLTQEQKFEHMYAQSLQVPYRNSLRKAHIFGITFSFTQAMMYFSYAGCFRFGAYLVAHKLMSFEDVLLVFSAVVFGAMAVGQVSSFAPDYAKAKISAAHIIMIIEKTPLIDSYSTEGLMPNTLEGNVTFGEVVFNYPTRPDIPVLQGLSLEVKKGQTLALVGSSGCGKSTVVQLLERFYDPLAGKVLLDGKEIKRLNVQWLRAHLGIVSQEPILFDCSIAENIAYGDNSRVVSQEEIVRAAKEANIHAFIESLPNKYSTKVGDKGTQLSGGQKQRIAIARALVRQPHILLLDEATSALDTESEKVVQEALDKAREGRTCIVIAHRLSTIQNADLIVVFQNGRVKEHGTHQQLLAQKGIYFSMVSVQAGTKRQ
Description: Amounts being present after 4 h in the apical compartment are shown in % of the amount administered to the basal side.
In order to characterize compounds as substrates of P-gp, monolayers of Caco-2 cells were used in line with previous studies [53]. In brief, transport from the basolateral to apical compartment was determined after 4 h in the absence or presence of the P-gp inhibitor zosuquidar (Biomol GmbH, Hamburg, Germany). […] Zosuquidar was administered in a concentration of 1 µM to the basal and apical compartments. Results are expressed in % of the amount administered to the basolateral compartment at the beginning of the experiment. The P-gp substrate digoxin (obtained in tritium-labeled form from ARC, St. Louis, USA and in unlabeled form from Merck KGaA, Darmstadt, Germany) was used as positive control. Monolayer integrity was checked routinely using tritium-labeled inulin (obtained from ARC, St. Louis, USA). […] LC–MS analyses were performed using an ultra-high-performance liquid chromatography (UPLC) (Ultimate 3000, Thermo Fisher Scientific) coupled to a high-resolution mass spectrometer (QExactive Orbitrap Focus, Thermo Fisher Scientific). The analytical column was an Acquity UPLC BEH C18, 1.7 µm, 2.1 × 100 mm column (Waters GmbH) and 80% methanol with 0.1% formic acid was used as mobile phase during an isocratic elution for 5 min at a flow rate of 0.35 mL/min. For sample preparation, 200 µL cell culture supernatant were mixed with 600 µL methanol including 50 ng/mL clopidogrel-d3 as an internal standard. Samples were centrifuged, the solvent of 600 µL supernatant was evaporated to dryness and 100 µL mobile phase was used for reconstitution. The injection volume was 5 µL. All experiments were performed with eight biological replicates. Unpaired t-test was used for analyzing differences with p-values < 0.05 considered significant.

[1] = Plasma protein binding (MicroSpin G-50 columns); format: in vitro ADME; details: human plasma, 37 °C, read-out: plasma protein binding (PPB) (converted)
Description: The radiotracer (100–200 kBq, [^18F]1c or [^18F]1f) in PBS (2 µL) was incubated with human plasma (100 µL) at 37 °C for 10 min. After preconditioning of the microcolumns according to the instructions of the manufacturer (illustra MicroSpin G-50 columns from GE Healthcare), a sample (40 µL) of was applied to the resin. The microspin tubes were centrifuged (2000g, 2 min) and both, eluate and resin were measured by a γ-counter (Wallac Wizard 1470, PerkinElmer, USA). The PPB was calculated as percentage of bound ligand (cpm of resin) from the total amount of radioactivity (sum of cpm of resin and eluate). Samples from incubation of the radiotracer in saline instead of plasma served as negative control. The mean PPB value was determined from at least two independent experiments each performed in triplicate.

[2] = Radioligand stability in human plasma and human serum; format: in vitro ADME; details: 37 °C, up to 120 min, radio-HPLC
Description: (§2) The radioligand (1–2 MBq, [^18F]1c or [^18F]1f) in PBS (20 µL) was incubated with human serum, human plasma or rat plasma (400 µL) at 37 °C. Samples (50 µL) were taken at 5, 10, 15, 30, 60 and 120 min, mixed with aqueous TFA (10%, 50 µL) and centrifuged (20,000g, 2 min). The supernatant (20 µL) was analyzed by radio-HPLC.

[3] = Radioligand stability in rat plasma; format: in vitro ADME; details: 37 °C, up to 120 min, radio-HPLC
Description: as §2

[4] = Dynamic small animal PET imaging of the rat brain; format: in vivo
Description: Small animal PET experiments in rats were performed to allow for an initial comparison in single animals that were injected with [^18F]1c or [^18F[1f alone, after preinjection of suvorexant (1 mg/kg), and after pretreatment with cyclosporine A (25 mg/kg) (Fig. 3). […] Therefore, to elucidate the P-gp-mediated transport of the compounds, specific experiments were performed.
Fig. 3 Time-activity curves and horizontal PET slices of the rat brain after injection of [^18F]1c (A, C) and [^18F]1f (B, D). Single animals were injected with the tracer alone (“control”, blue) compared to animals preinjected with suvorexant (1 mg/kg, 15 min prior to tracer injection, each n = 1; “blocking”, red) or cyclosporine A (25 mg/kg, 30 min prior to tracer injection, each n = 1; green)
Ten- to 13-week-old female CD Sprague–Dawley rats (250–300 g, Charles River) were housed with free access to standard rat chow (Purina) and water at all times. Dynamic small animal PET scans were performed on an Inveon™ microPET scanner (Siemens Healthineers AG, Erlangen, Germany). All rats were continuously anesthetized using isoflurane (2–3% in oxygen, 0.8 L/min) and placed on a heating pad (37 °C) during the PET scan. Rats were injected intravenously in the tail vein with the radioligand in saline (5–15 MBq in 200–300 µL, [^18F]1c or [^18F]1f). Pretreatment with suvorexant (1 mg/kg, 15 min prior to tracer injection) or cyclosporine A (25 mg/kg, […] to tracer injection) was done intravenously. Dynamic PET scans were acquired from 0 to 60 min p.i. and consisted of 23 frames with increasing duration (12 × 10 s, 3 × 1 min, 5 × 5 min and 3 × 10 min). Subsequently, an attenuation scan with a rotating Co-57 point source was performed. The obtained dynamic emission images were subjected to an attenuation and decay correction. After the iterative maximum a posteriori (MAP) estimation for the image reconstruction, regions of interest (ROIs) were drawn for the whole brain. Computational processing of the PET scans was done with the software PMOD (PMOD Technologies LLC). The data obtained were finally converted into values expressed as percent of injected dose per gram (%ID/g).

[5] = Partition coefficient logD7.4 (n-octanol/PBS); format: physicochemical; details: n-octanol/PBS pH 7.4, mean ± SD
Description: Phosphate-buffered saline (PBS, 480 µL, pH 7.4) and n-octanol (500 µL) were placed in an Eppendorf tube. The radioligand (30–50 kBq, [^18F]1c or [^18F]1f) in PBS (20 µL) was added to the tube, vortexed for 1 min and centrifuged (20,000g, 1 min). Three samples (100 µL) from each layer were collected and measured by a γ-counter (Wallac Wizard 1470, PerkinElmer, USA). After the average cpm values from the triplicate measurements of each layer were calculated, the logD7.4 was determined as the logarithm of the ratio of n-octanol (mean cpm) to PBS (mean cpm). The mean logD7.4 value ± standard deviation was determined by at least three independent experiments each performed in triplicates.

| Compound | OX1R selectivity Ki(hOX2R)/Ki(hOX1R) (human OX1R) | Ki (human OX1R) | Ki (human OX2R) | effect of P-gp inhibitor zosuquidar (ZSQ) on basolateral-to-apical transport (P-gp) | passive permeability (transcellular passive diffusion) (P-gp) | also measured |
| --- | --- | --- | --- | --- | --- | --- |
| Cc1ccc(-n2nccn2)c(C(=O)N2CCCN(c3nc4cc(F)ccc4o3)CC2)c1 [1a] | 1.0 | 2.5 ± 0.62 nM | 2.5 ± 0.36 nM |  |  |  |
| Cc1ccc(-n2nccn2)c(C(=O)N2CCCN(c3nc4cc(F)ccc4s3)CC2)c1 [1b] | 1.3 | 1.9 ± 0.42 nM | 2.4 ± 0.49 nM | did not significantly reduce | greater than that of digoxin |  |
| Cc1ccc(-n2nccn2)c(C(=O)N2CCCN(c3nc4ccc(F)cc4s3)CC2)c1 [1c] | 1.2 | 0.99 ± 0.25 nM | 1.2 ± 0.2 nM | only moderately inhibited; also recorded: very modest, yet significant, effect | greater than that of digoxin | P-gp substrate assessment (P-gp): not efficient P-gp substrates |
| Cc1ccc(-n2nccn2)c(C(=O)N2CCCN(c3cnc4cc(F)ccc4n3)CC2)c1 [1d] | 0.7 | 1.2 ± 0.4 nM | 0.8 nM and 0.83 nM | did not significantly reduce | greater than that of digoxin |  |
| CC[C@H](C)[C@H]1CN(c2nc3cc(F)ccc3o2)CCCN1C(=O)c1cc(C)ccc1-n1nccn1 [1e] | 77 | 1.2 ± 0.28 nM | 92 ± 14 nM |  |  | decrease of OX1R affinity compared to JH112 (factor) (human OX1R; fluorine for chlorine replacement): 1.6 |
| CC[C@H](C)[C@H]1CN(c2nc3ccc(F)cc3s2)CCCN1C(=O)c1cc(C)ccc1-n1nccn1 [1f] | 77 | 0.69 ± 0.26 nM | 53 ± 7.8 nM | no effect; also recorded: did not significantly reduce | similarly high as with digoxin | P-gp substrate assessment (P-gp): not efficient P-gp substrates |
| Cc1ccc(-n2nccn2)c(C(=O)N2CCCN(c3nc4ccc([18F])cc4s3)CC2)c1 [[^18F]1c, [4-(6-[^18F]fluorobenzo[d]thiazol-2-yl)-1,4-diazepan-1-yl][5-methyl-2-(2H-1,2,3-triazol-2-yl)phenyl]methanone] |  |  |  |  |  | fraction unbound at 10 min [1]: 0.34; stability in human plasma [2]: stable over 120 min; stability in human serum [2]: stable over 120 min; stability in rat plasma [3]: stable over 120 min; brain uptake after pretreatment with cyclosporine A ([4]; cyclosporine A 25 mg/kg i.v. prior to tracer, n = 1): 0.25 %ID/g; brain uptake after preinjection of suvorexant ([4]; suvorexant 1 mg/kg i.v. 15 min prior to tracer, n = 1): 0.25 %ID/g; time of maximum brain uptake p.i. ([4]; tracer alone i.v.): about 40 s; maximum brain uptake ([4]; tracer alone i.v., whole brain, n = 1): 0.17 %ID/g; logD [5]: 2.28 |
